Data as given in ChEMBL document CHEMBL3885881, “DrugMatrix”.

Organism: Rattus norvegicus
Experiment: DrugMatrix - Regimen: Daily Repeat
Assay type: toxicity, organism-based, Sprague-Dawley
Design: regimen Daily Repeat, gender Male, age 6-8 weeks
Details: in vivo, po, route oral GAVAGE, vehicle .5 % CMC; for ABSOLUTE BASOPHIL / ABSOLUTE EOSINOPHIL / ABSOLUTE LYMPHOCYTE / ABSOLUTE MONOCYTE / ABSOLUTE SEGMENTED NEUTROPHIL / BASOPHIL / EOSINOPHIL / ERYTHROCYTE COUNT / HEMATOCRIT / HEMOGLOBIN / LEUKOCYTE COUNT / LYMPHOCYTE / MEAN CORPUSCULAR HEMOGLOBIN / MEAN CORPUSCULAR HEMOGLOBIN CONCENTRATION / MEAN CORPUSCULAR VOLUME / MONOCYTE / NEUTROPHIL / NUCLEATED RED BLOOD CELLS / PLATELET COUNT: tissue Blood; for ALANINE AMINOTRANSFERASE / ALBUMIN / ALKALINE PHOSPHATASE / ASPARTATE AMINOTRANSFERASE / BLOOD UREA NITROGEN / CARBON DIOXIDE / CHLORIDE / CHOLESTEROL / CREATINE PHOSPHOKINASE / CREATININE / GLUCOSE / LACTATE DEHYDROGENASE / LIPASE / PHOSPHORUS / POTASSIUM / SODIUM / TOTAL BILIRUBIN / TOTAL PROTEIN / URIC ACID: tissue Plasma
[1] = 0 mg/kg, 72 h, dose level Control, time 3 day
[2] = 0 mg/kg, 120 h, dose level Control, time 5 day
[3] = 1 mg/kg, 72 h, dose level Low, time 3 day

## CCOc1nc2cccc(C(=O)O)c2n1Cc1ccc(-c2ccccc2-c2nnn[nH]2)cc1
[1]
  ABSOLUTE BASOPHIL: 0 CELLS/uL
  ABSOLUTE EOSINOPHIL: 35.67 CELLS/uL
  ABSOLUTE LYMPHOCYTE: 9125.17 CELLS/uL
  ABSOLUTE MONOCYTE: 50.17 CELLS/uL
  ABSOLUTE SEGMENTED NEUTROPHIL: 722.33 CELLS/uL
  BASOPHIL: 0%
  EOSINOPHIL: 0.33%
  ERYTHROCYTE COUNT: 5.35 x10E6/uL
  HEMATOCRIT: 33.58%
  HEMOGLOBIN: 13.35 G/DL
  LEUKOCYTE COUNT: 9.93 x10E3/uL
  LYMPHOCYTE: 91.67%
  MEAN CORPUSCULAR HEMOGLOBIN: 25 pg
  MEAN CORPUSCULAR HEMOGLOBIN CONCENTRATION: 39.8 G/DL
  MEAN CORPUSCULAR VOLUME: 62.77 fL
  MONOCYTE: 0.67%
  NEUTROPHIL: 7.33%
  NUCLEATED RED BLOOD CELLS: 0 /100WBC
  PLATELET COUNT: 866.17 x10E3/uL
  ALANINE AMINOTRANSFERASE: 57.17 u/L
  ALBUMIN: 4.22 G/DL
  ALKALINE PHOSPHATASE: 391 u/L
  ASPARTATE AMINOTRANSFERASE: 95.17 u/L
  BLOOD UREA NITROGEN: 13.67 mg/dL
  CARBON DIOXIDE: 30 mmol/L
  CHLORIDE: 102.5 MEQ/L
  CHOLESTEROL: 72 mg/dL
  CREATINE PHOSPHOKINASE: 485.67 u/L
  CREATININE: 0.27 mg/dL
  GLUCOSE: 152 mg/dL
  LACTATE DEHYDROGENASE: 372.67 u/L
  LIPASE: 9.83 u/L
  PHOSPHORUS: 12.47 mg/dL
  POTASSIUM: 6.81 MEQ/L
  SODIUM: 144.1 MEQ/L
  TOTAL BILIRUBIN: 0.23 mg/dL
  TOTAL PROTEIN: 5.93 G/DL
  URIC ACID: 1.9 mg/dL
[2]
  ABSOLUTE BASOPHIL: 0 CELLS/uL
  ABSOLUTE EOSINOPHIL: 67.33 CELLS/uL
  ABSOLUTE LYMPHOCYTE: 11419.17 CELLS/uL
  ABSOLUTE MONOCYTE: 203.17 CELLS/uL
  ABSOLUTE SEGMENTED NEUTROPHIL: 1327 CELLS/uL
  BASOPHIL: 0%
  EOSINOPHIL: 0.5%
  ERYTHROCYTE COUNT: 5.65 x10E6/uL
  HEMATOCRIT: 35.3%
  HEMOGLOBIN: 13.98 G/DL
  LEUKOCYTE COUNT: 13.02 x10E3/uL
  LYMPHOCYTE: 88%
  MEAN CORPUSCULAR HEMOGLOBIN: 24.78 pg
  MEAN CORPUSCULAR HEMOGLOBIN CONCENTRATION: 39.63 G/DL
  MEAN CORPUSCULAR VOLUME: 62.58 fL
  MONOCYTE: 1.33%
  NEUTROPHIL: 10.17%
  NUCLEATED RED BLOOD CELLS: 0 /100WBC
  PLATELET COUNT: 1213.83 x10E3/uL
  ALANINE AMINOTRANSFERASE: 49.67 u/L
  ALBUMIN: 4.28 G/DL
  ALKALINE PHOSPHATASE: 362.33 u/L
  ASPARTATE AMINOTRANSFERASE: 99 u/L
  BLOOD UREA NITROGEN: 20.67 mg/dL
  CARBON DIOXIDE: 26.33 mmol/L
  CHLORIDE: 102 MEQ/L
  CHOLESTEROL: 63.83 mg/dL
  CREATINE PHOSPHOKINASE: 481.83 u/L
  CREATININE: 0.21 mg/dL
  GLUCOSE: 158 mg/dL
  LACTATE DEHYDROGENASE: 656.33 u/L
  LIPASE: 10.67 u/L
  PHOSPHORUS: 12.27 mg/dL
  POTASSIUM: 6.17 MEQ/L
  SODIUM: 143.35 MEQ/L
  TOTAL BILIRUBIN: 0.17 mg/dL
  TOTAL PROTEIN: 6.13 G/DL
  URIC ACID: 1.48 mg/dL
[3]
  ABSOLUTE BASOPHIL: 0 CELLS/uL
  ABSOLUTE EOSINOPHIL: 0 CELLS/uL
  ABSOLUTE LYMPHOCYTE: 10188.33 CELLS/uL
  ABSOLUTE MONOCYTE: 75.33 CELLS/uL
  ABSOLUTE SEGMENTED NEUTROPHIL: 1069.67 CELLS/uL
  BASOPHIL: 0%
  EOSINOPHIL: 0%
  ERYTHROCYTE COUNT: 5.49 x10E6/uL
  HEMATOCRIT: 34.4%
  HEMOGLOBIN: 13.73 G/DL
  LEUKOCYTE COUNT: 11.33 x10E3/uL
  LYMPHOCYTE: 89.67%
  MEAN CORPUSCULAR HEMOGLOBIN: 25.03 pg
  MEAN CORPUSCULAR HEMOGLOBIN CONCENTRATION: 39.93 G/DL
  MEAN CORPUSCULAR VOLUME: 62.7 fL
  MONOCYTE: 0.67%
  NEUTROPHIL: 9.67%
  NUCLEATED RED BLOOD CELLS: 0 /100WBC
  PLATELET COUNT: 1183.67 x10E3/uL
  ALANINE AMINOTRANSFERASE: 53.67 u/L
  ALBUMIN: 4.23 G/DL
  ALKALINE PHOSPHATASE: 410.67 u/L
  ASPARTATE AMINOTRANSFERASE: 90 u/L
  BLOOD UREA NITROGEN: 16.67 mg/dL
  CARBON DIOXIDE: 29 mmol/L
  CHLORIDE: 102.67 MEQ/L
  CHOLESTEROL: 81 mg/dL
  CREATINE PHOSPHOKINASE: 371 u/L
  CREATININE: 0.23 mg/dL
  GLUCOSE: 155.67 mg/dL
  LACTATE DEHYDROGENASE: 328 u/L
  LIPASE: 8 u/L
  PHOSPHORUS: 12.13 mg/dL
  POTASSIUM: 6.17 MEQ/L
  SODIUM: 143.6 MEQ/L
  TOTAL BILIRUBIN: 0.2 mg/dL
  TOTAL PROTEIN: 5.9 G/DL
  URIC ACID: 1.6 mg/dL
